ChEMBL document CHEMBL2424542, “3-Carboxy-pyrazolinalanine as a new scaffold for developing potent and selective NMDA receptor antagonists” (Eur J Med Chem, 2013)
pIC50, pKi: −log10 of the molar value.

Columns and labels:
Format in all cases: cell membranes, Membrane
[1] = Displacement of [3H]KAIN from kainate receptor in rat cortical membranes
[2] = Displacement of [3H]AMPA from AMPA receptor in rat cortical membranes
Glutamate NMDA receptor = test: Displacement of [3H]CGP39653 from NMDA receptor in rat cortical membranes

pIC50 [1] | pIC50 [2] | pKi (Glutamate NMDA receptor) | Compound
< 4.00 | < 4.00 | 7.59 | N[C@H](C[C@H]1CC(C(=O)O)=NN1c1ccccc1)C(=O)O (racemic)
< 4.00 | < 4.00 | 6.70 | N[C@H](C[C@@H]1CC(C(=O)O)=NN1c1ccccc1)C(=O)O (racemic)
< 4.00 | < 4.00 | 5.00 | N[C@H](C[C@@H]1CC(C(=O)O)=NN1Cc1ccccc1)C(=O)O (racemic)

The remaining lines, values behind:

Compound | pIC50 [1] | pIC50 [2] | pKi (Glutamate NMDA receptor)
N[C@H](C[C@H]1CC(C(=O)O)=NO1)C(=O)O (racemic) | < 4.00 | < 4.00 | –
N[C@H](C[C@H]1CC(C(=O)O)=NN1)C(=O)O (racemic) | < 4.00 | < 4.00 | 6.77
N[C@H](C[C@@H]1CC(C(=O)O)=NN1)C(=O)O (racemic) | < 4.00 | < 4.00 | 5.77
N[C@H](C[C@H]1CC(C(=O)O)=NN1Cc1ccccc1)C(=O)O (racemic) | < 4.00 | < 4.00 | 5.85
N[C@H](C[C@@H]1CC(C(=O)O)=NO1)C(=O)O (racemic) | < 4.00 | < 4.00 | –
